# Measured values taken from patent US9451775B2, “Heterocyclic compounds as pesticides” (Bayer Intellectual Property GmbH, priority 2008, dated 2016).
# Test system: not listed separately
# Assay: logP determination by HPLC (formic acid method)
# Type: physicochemical
# Settings: HPLC on reversed-phase column (C18), acidic range (pH 3.4), 55° C.; read-out: logP (HCOOH)
# Experimental: 1) Description of the method for determining the logP values (formic acid method)
# The logP values given in the table were determined in accordance with EEC Directive 79/831 Annex V.A8 by HPLC (High Performance Liquid Chromatography) on a reversed-phase column (C18). Temperature: 55° C.
# Mobile phases for the determination in the acidic range (pH 3.4):
# Mobile phase A: Acetonitrile+1 ml of formic acid/litre. Mobile phase B: water+0.9 ml of formic acid/litre.
# Gradient: from 10% mobile phase A/90% mobile phase B to 95% mobile phase A/5% mobile phase B in 4.25 min.
# Calibration was carried out using unbranched alkan-2-ones (having 3 to 16 carbon atoms) with known logP values (determination of the logP values by the retention times using linear interpolation between two successive alkanones). The lambda max values were determined in the maxima of the chromatographic signals using the UV spectra from 200 nm to 400 nm.
row,Compound,chromatographic logP
1,Cc1nc(-c2cccnc2)sc1-c1ccnc(C(F)(F)C(F)(F)C(F)(F)F)n1 [compound 60],3.84

# Same assay, conditions: reversed-phase HPLC column (C18), pH 3.4, HPLC on reversed-phase column (C18), acidic range (pH 3.4), 55° C.; read-out: logP (HCOOH)
row,Compound,chromatographic logP
1,"c1cnc(-c2cccc(-c3nnc(-c4cccnc4)s3)n2)nc1 [Preparation Example 10, 2-[6-(5-Pyridin-3-yl-[1,3,4]thiadiazol-2-yl)pyridin-2-yl]pyrimidine]",1.54
2,Cn1nc(-c2cccnc2)cc1-c1ccn(-c2ncccn2)n1 [Preparation Example 11],1
3,Cn1nc(-c2cccnc2)cc1-c1ccnc(-c2ncccn2)n1 [Preparation Example 12],0.65
4,Clc1ccc(-c2cnc(-c3cccnc3)s2)cc1 [compound 13],3.23
5,Cc1nc(-c2cccnc2)sc1-n1ccc(-c2ccccn2)n1 [compound 15],1.67
6,Cc1nc(-c2cccnc2)sc1C1=NCC(c2ccccn2)O1 (centres unmarked) [compound 16],1.72
7,Cc1nc(-c2cccnc2)sc1-c1cccc(C(F)(F)F)c1 [compound 17],3.55
8,Cc1nc(-c2cccnc2)sc1-c1cccnc1 [compound 18],1.1
9,COC(OC)c1ccn(-c2sc(-c3cccnc3)nc2C)n1 [compound 19],1.77
10,Cc1nc(-c2cccnc2)sc1-n1ccc(Br)n1 [compound 20],2.28
11,Cc1nc(-c2cccnc2)sc1-c1cccc(C(F)(F)F)n1 [compound 21],3.01
12,Cc1nc(-c2cccnc2)sc1-c1ccn(-c2ncccn2)n1 [compound 22],1.74
13,Cc1nc(-c2cccnc2)sc1-c1ccn(CC(F)(F)F)n1 [compound 23],2.2
14,Cc1nc(-c2cccnc2)sc1-c1ccn(-c2ccccn2)n1 [compound 24],2.94
15,Cc1nc(-c2cccnc2)sc1-c1cccc(C2OCCO2)c1 [compound 25],2.39
16,Cc1nc(-c2cccnc2)sc1-c1ccnn1-c1ncccn1 [compound 26],1.47
17,Cc1nc(-c2cccnc2)sc1-n1ccc(-c2ccccc2)n1 [compound 28],3.08
18,Cc1nc(-c2cccnc2)sc1-c1ccnc(-c2ccccn2)n1 [compound 29],1.47
19,Cc1nc(-c2sc(-c3cccnc3)nc2C)cs1 [compound 30],2

row,Compound,chromatographic logP
1,Cc1nc(-c2cccnc2)sc1-c1cccc(Cl)n1 [compound 31],2.66
2,Cc1nc(-c2cccnc2)sc1-c1cccc(=O)[nH]1 [compound 32],1.23
3,CSc1cnn(-c2sc(-c3cccnc3)nc2C)c1 [compound 33],2.21
4,Cc1nc(-c2cccnc2)sc1-n1ccc(-c2cccs2)n1 [compound 34],2.84
5,Cc1nc(-c2cccnc2)sc1-n1ccc([N+](=O)[O-])n1 [compound 35],1.92
6,Cc1nc(-c2cccnc2)sc1-n1ccc(-c2ccccc2F)n1 [compound 36],3.33
7,Cc1nc(-c2cccnc2)sc1-n1ccc(-c2ccc(Cl)s2)n1 [compound 37],3.81
8,Cc1nc(-c2cccnc2)sc1-n1ccc(-c2ccccc2C(F)(F)F)n1 [compound 38],3.94
9,Cc1nc(-c2cccnc2)sc1-n1cc(-c2ccccn2)cn1 [compound 39],1.55
10,Cc1nc(-c2cccnc2)sc1-n1ccc(-c2ccco2)n1 [compound 40],2.43
11,Cc1nc(-c2cccnc2)sc1-c1ccnc(-c2ncccc2Cl)n1 [compound 41],2.03
12,Cc1nc(-c2cccnc2)sc1-c1cccc(-c2ccccc2Cl)n1 [compound 42],3.97
13,Cc1nc(-c2cccnc2)sc1-c1cncc(-c2cc(C)n(C)n2)n1 [compound 43],1.86
14,Cc1cc(-c2nccc(-c3sc(-c4cccnc4)nc3C)n2)n(C)n1 [compound 44],2.4
15,Cc1nc(-c2cccnc2)sc1-c1ccnc(C(F)(F)Cl)n1 [compound 45],2.95
16,Cc1nc(-c2cccnc2)sc1-c1ccnc(-c2cccc(Cl)n2)n1 [compound 46],2.47
17,Cc1cc(=O)n(-c2nccc(-c3sc(-c4cccnc4)nc3C)n2)[nH]1 [compound 47],1.48
18,Cc1nc(-c2cccnc2)sc1-c1ccnc(-c2ncc(F)cc2F)n1 [compound 48],2.08
19,Cc1nc(-c2cccnc2)sc1-c1ccnc(-c2cnccn2)n1 [compound 51],1.59

row,Compound,chromatographic logP
1,Cc1nc(-c2cccnc2)sc1-c1ccnc(-c2ccco2)n1 [compound 52],2.35
2,COC(=O)/C(=N\O)c1nccc(-c2sc(-c3cccnc3)nc2C)n1 [compound 53],1.58
3,Cc1cccc(-c2nccc(-c3sc(-c4cccnc4)nc3C)n2)n1 [compound 54],1.49
4,Cc1ccc(-c2nccc(-c3sc(-c4cccnc4)nc3C)n2)nc1C [compound 55],1.49
5,Cc1nc(-c2nccc(-c3sc(-c4cccnc4)nc3C)n2)cs1 [compound 56],2.08
6,CCc1cccc(-c2nccc(-c3sc(-c4cccnc4)nc3C)n2)n1 [compound 57],1.88
7,CCCc1cccc(-c2nccc(-c3sc(-c4cccnc4)nc3C)n2)n1 [compound 58],2.25
8,COc1cc(OC)nc(-c2nccc(-c3sc(-c4cccnc4)nc3C)n2)n1 [compound 59],2.12
9,COCc1nccc(-c2sc(-c3cccnc3)nc2C)n1 [compound 61],1.57
10,Cc1nc(-c2cccnc2)sc1-c1nc(C(C)C)no1 [compound 62],3.23
11,Cc1nc(-c2cccnc2)sc1-c1nc(-c2cccnc2)no1 [compound 63],2.51
12,Cc1nc(-c2cccnc2)sc1-c1nc(C(F)(F)F)no1 [compound 64],3.34
13,Cc1cc(C)nc(-c2nccc(-c3sc(-c4cccnc4)nc3C)n2)c1 [compound 65],1.36
14,Cc1nc(-c2cccnc2)sc1-c1ccnc(-n2[nH]c(C(F)(F)F)cc2=O)n1 [compound 66],2.9
15,c1cnc(N2CCOC(c3cnc(-c4cccnc4)s3)=N2)nc1 [compound 67],1.9
16,Cc1nc(-c2cccnc2)sc1-c1cccc(S(C)(=O)=O)n1 [compound 68],1.62
17,Cc1nc(-c2cccnc2)sc1-c1ccnc(Cn2cncn2)n1 [compound 69],1.2
18,c1cnc(-c2noc(-c3cnc(-c4cccnc4)s3)n2)nc1 [compound 70],1.4
19,FC(F)(F)c1noc(-c2cnc(-c3cccnc3)s2)n1 [compound 71],2.7

# Same assay, conditions: reversed-phase HPLC column (C18), pH 3.4, values printed in the text of the preparation examples; formic acid method; read-out: logP (HCOOH)
row,Compound,chromatographic logP
1,"c1cnc(-c2cccc(-c3nnc(-c4cccnc4)s3)n2)nc1 [Preparation Example 10, 2-[6-(5-Pyridin-3-yl-[1,3,4]thiadiazol-2-yl)pyridin-2-yl]pyrimidine]",1.54
2,Cn1nc(-c2cccnc2)cc1-c1ccn(-c2ncccn2)n1 [Preparation Example 11],1
3,Cn1nc(-c2cccnc2)cc1-c1ccnc(-c2ncccn2)n1 [Preparation Example 12],0.65

# Test system: green peach aphid (Myzus persicae)
# Assay: Myzus test (spray treatment)
# Type: in vivo
# Settings: foliar, application rate of 500 g/ha, sprayed Chinese cabbage leaf discs, read-out: activity (effect in %, aphids killed)
# Experimental: Myzus Test (Spray Treatment)
# • Solvents: 78.0 parts by weight of acetone • 1.5 parts by weight of dimethylformamide • Emulsifier: 0.5 part by weight of alkylaryl polyglycol ether
# To produce a suitable preparation of active compound, 1 part by weight of active compound is mixed with the stated amounts of solvents and emulsifier, and the concentrate is diluted with emulsifier-containing water to the desired concentration.
# Discs of leaves of Chinese cabbage (Brassica pekinensis) which are heavily infested by all stages of the green peach aphid (Myzus persicae) are sprayed with an active compound preparation of the desired concentration.
# After the desired period of time, the effect in % is determined. 100% means that all aphids have been killed; 0% means that none of the aphids have been killed.
row,Compound,pest or weed control at 500 g/ha [%]
1,"c1cnc(-c2cccc(-c3nnc(-c4cccnc4)s3)n2)nc1 [Preparation Example 10, 2-[6-(5-Pyridin-3-yl-[1,3,4]thiadiazol-2-yl)pyridin-2-yl]pyrimidine]",≥ 80
2,Cn1nc(-c2cccnc2)cc1-c1ccn(-c2ncccn2)n1 [Preparation Example 11],≥ 80
3,Clc1ccc(-c2cnc(-c3cccnc3)s2)cc1 [compound 13],≥ 80
4,Cc1nc(-c2cccnc2)sc1-n1ccc(-c2ccccn2)n1 [compound 15],≥ 80
5,Cc1nc(-c2cccnc2)sc1C1=NCC(c2ccccn2)O1 (centres unmarked) [compound 16],≥ 80
6,Cc1nc(-c2cccnc2)sc1-c1cccc(C(F)(F)F)c1 [compound 17],≥ 80
7,Cc1nc(-c2cccnc2)sc1-c1cccnc1 [compound 18],≥ 80
8,COC(OC)c1ccn(-c2sc(-c3cccnc3)nc2C)n1 [compound 19],≥ 80
9,Cc1nc(-c2cccnc2)sc1-n1ccc(Br)n1 [compound 20],≥ 80
10,Cc1nc(-c2cccnc2)sc1-c1cccc(C(F)(F)F)n1 [compound 21],≥ 80
11,Cc1nc(-c2cccnc2)sc1-c1ccn(-c2ncccn2)n1 [compound 22],≥ 80
12,Cc1nc(-c2cccnc2)sc1-c1ccn(CC(F)(F)F)n1 [compound 23],≥ 80
13,Cc1nc(-c2cccnc2)sc1-c1ccn(-c2ccccn2)n1 [compound 24],≥ 80
14,Cc1nc(-c2cccnc2)sc1-c1cccc(C2OCCO2)c1 [compound 25],≥ 80
15,Cc1nc(-c2cccnc2)sc1-c1ccnn1-c1ncccn1 [compound 26],≥ 80
16,Cc1nc(-c2cccnc2)sc1-n1ccc(-c2ccccc2)n1 [compound 28],≥ 80
17,Cc1nc(-c2cccnc2)sc1-c1ccnc(-c2ccccn2)n1 [compound 29],≥ 80
18,Cc1nc(-c2sc(-c3cccnc3)nc2C)cs1 [compound 30],≥ 80
19,Cc1nc(-c2cccnc2)sc1-c1cccc(Cl)n1 [compound 31],≥ 80

row,Compound,pest or weed control at 500 g/ha [%]
1,Cc1nc(-c2cccnc2)sc1-c1cccc(=O)[nH]1 [compound 32],≥ 80
2,CSc1cnn(-c2sc(-c3cccnc3)nc2C)c1 [compound 33],≥ 80
3,Cc1nc(-c2cccnc2)sc1-n1ccc(-c2cccs2)n1 [compound 34],≥ 80
4,Cc1nc(-c2cccnc2)sc1-n1ccc([N+](=O)[O-])n1 [compound 35],≥ 80
5,Cc1nc(-c2cccnc2)sc1-n1ccc(-c2ccccc2F)n1 [compound 36],≥ 80
6,Cc1nc(-c2cccnc2)sc1-n1ccc(-c2ccc(Cl)s2)n1 [compound 37],≥ 80
7,Cc1nc(-c2cccnc2)sc1-n1ccc(-c2ccccc2C(F)(F)F)n1 [compound 38],≥ 80
8,Cc1nc(-c2cccnc2)sc1-n1cc(-c2ccccn2)cn1 [compound 39],≥ 80
9,Cc1nc(-c2cccnc2)sc1-n1ccc(-c2ccco2)n1 [compound 40],≥ 80
10,Cc1nc(-c2cccnc2)sc1-c1ccnc(-c2ncccc2Cl)n1 [compound 41],≥ 80
11,Cc1nc(-c2cccnc2)sc1-c1cccc(-c2ccccc2Cl)n1 [compound 42],≥ 80
12,Cc1nc(-c2cccnc2)sc1-c1cncc(-c2cc(C)n(C)n2)n1 [compound 43],≥ 80
13,Cc1cc(-c2nccc(-c3sc(-c4cccnc4)nc3C)n2)n(C)n1 [compound 44],≥ 80
14,Cc1nc(-c2cccnc2)sc1-c1ccnc(C(F)(F)Cl)n1 [compound 45],≥ 80
15,Cc1nc(-c2cccnc2)sc1-c1ccnc(-c2cccc(Cl)n2)n1 [compound 46],≥ 80
16,Cc1cc(=O)n(-c2nccc(-c3sc(-c4cccnc4)nc3C)n2)[nH]1 [compound 47],≥ 80
17,Cc1nc(-c2cccnc2)sc1-c1ccnc(-c2ncc(F)cc2F)n1 [compound 48],≥ 80
18,Cc1nc(-c2cccnc2)sc1-c1ccnc(-c2cnccn2)n1 [compound 51],≥ 80
19,Cc1nc(-c2cccnc2)sc1-c1ccnc(-c2ccco2)n1 [compound 52],≥ 80

row,Compound,pest or weed control at 500 g/ha [%]
1,COC(=O)/C(=N\O)c1nccc(-c2sc(-c3cccnc3)nc2C)n1 [compound 53],≥ 80
2,Cc1cccc(-c2nccc(-c3sc(-c4cccnc4)nc3C)n2)n1 [compound 54],≥ 80
3,Cc1ccc(-c2nccc(-c3sc(-c4cccnc4)nc3C)n2)nc1C [compound 55],≥ 80
4,Cc1nc(-c2nccc(-c3sc(-c4cccnc4)nc3C)n2)cs1 [compound 56],≥ 80
5,CCc1cccc(-c2nccc(-c3sc(-c4cccnc4)nc3C)n2)n1 [compound 57],≥ 80
6,CCCc1cccc(-c2nccc(-c3sc(-c4cccnc4)nc3C)n2)n1 [compound 58],≥ 80
7,COc1cc(OC)nc(-c2nccc(-c3sc(-c4cccnc4)nc3C)n2)n1 [compound 59],≥ 80
8,COCc1nccc(-c2sc(-c3cccnc3)nc2C)n1 [compound 61],≥ 80
9,Cc1nc(-c2cccnc2)sc1-c1nc(C(C)C)no1 [compound 62],≥ 80
10,Cc1nc(-c2cccnc2)sc1-c1nc(-c2cccnc2)no1 [compound 63],≥ 80
11,Cc1nc(-c2cccnc2)sc1-c1nc(C(F)(F)F)no1 [compound 64],≥ 80
12,Cc1cc(C)nc(-c2nccc(-c3sc(-c4cccnc4)nc3C)n2)c1 [compound 65],≥ 80
13,Cc1nc(-c2cccnc2)sc1-c1ccnc(-n2[nH]c(C(F)(F)F)cc2=O)n1 [compound 66],≥ 80
14,c1cnc(N2CCOC(c3cnc(-c4cccnc4)s3)=N2)nc1 [compound 67],≥ 80
15,Cc1nc(-c2cccnc2)sc1-c1cccc(S(C)(=O)=O)n1 [compound 68],≥ 80
16,Cc1nc(-c2cccnc2)sc1-c1ccnc(Cn2cncn2)n1 [compound 69],≥ 80
17,c1cnc(-c2noc(-c3cnc(-c4cccnc4)s3)n2)nc1 [compound 70],≥ 80
18,FC(F)(F)c1noc(-c2cnc(-c3cccnc3)s2)n1 [compound 71],≥ 80

# Same assay, conditions: in Brassica rapa, foliar, read-out: activity (effect in %, aphids killed)
row,Compound,pest or weed control at 500 g/ha [%]
1,Cn1nc(-c2cccnc2)cc1-c1ccnc(-c2ncccn2)n1 [Preparation Example 12],≥ 80
2,Cc1nc(-c2cccnc2)sc1-c1ccnc(C(F)(F)C(F)(F)C(F)(F)F)n1 [compound 60],≥ 80
